Results: patent US8604046B2, “Substituted piperidine spiro pyrrolidinone and piperidinone, preparation and therapeutic use thereof” (Sanofi, priority 2008, dated 2013)
pKi: −log10 of the molar value.

Legend:
rhesus H3 receptor [1] = target: T1, rhesus H3 receptor (Macaca mulatta, UniProt Q865E1); test: Rhesus H3 [3H]-methylhistamine radioligand binding assay; set-up: species or system rhesus monkey (Macacca Mulatta); conditions: [3H]-Methylhistamine 2 nM, rhesus H3 membranes, WGA SPA beads, Cheng-Prusoff
Summary of the method: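 Membranes from tetracycline-induced (500 ng/ml, 24 h) Flp-In T-REx 293 cells expressing 445-aa rhesus H3 receptor, 20-30 μg protein per reaction. WGA SPA format with 2 nM [3H]-methylhistamine, 1 hour at 25° C; Ki obtained via Hill transformation and Cheng-Prusoff equation.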

rhesus H3 receptor [2] = target: T1, rhesus H3 receptor; test: GTPγS radioligand binding assay, inhibition of rhesus H3 constitutive functional activity (inverse agonism); assay type: biochemical, rhesus monkey (Macacca Mulatta); set-up: concentration or dose not given beside the values; conditions: rhesus H3 cell membranes, relative to basal levels
Summary of the method: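 Membranes from tetracycline-induced (500 ng/ml, 24 h) Flp-In T-REx 293 cells stably expressing the 445-aa rhesus H3 receptor, resuspended in 5 mM HEPES pH 7.4 at 10 mg/ml protein. Inverse agonism measured as inhibition of constitutive GTPγS binding.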

T1 sequence (Q865E1 1-445): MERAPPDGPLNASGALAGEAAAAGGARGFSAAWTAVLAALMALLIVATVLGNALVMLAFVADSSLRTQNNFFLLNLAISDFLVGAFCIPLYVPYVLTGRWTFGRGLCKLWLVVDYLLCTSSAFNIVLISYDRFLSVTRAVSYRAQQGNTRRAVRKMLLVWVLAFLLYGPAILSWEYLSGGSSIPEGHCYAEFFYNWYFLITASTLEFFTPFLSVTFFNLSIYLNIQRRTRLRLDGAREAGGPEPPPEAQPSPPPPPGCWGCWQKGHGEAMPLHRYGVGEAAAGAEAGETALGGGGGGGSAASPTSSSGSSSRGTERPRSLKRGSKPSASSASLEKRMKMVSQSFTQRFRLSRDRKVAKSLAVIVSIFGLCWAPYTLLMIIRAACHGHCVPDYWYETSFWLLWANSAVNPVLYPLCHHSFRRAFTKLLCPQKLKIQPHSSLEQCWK

| Structure (SMILES) | pKi (rhesus H3 receptor [1]) | Inverse Agonism: % inhibition of Basal GTPγS binding in Rhesus H3 (rhesus H3 receptor [2]) |
| --- | --- | --- |
| COCC(=O)N1CCC2(CC1)CCN(c1ccc(N3CC[C@H](N4CCC[C@@H]4C)C3)cc1C(F)(F)F)C2=O [Example 61, 8-(2-Methoxy-acetyl)-2-[4-((2S,3′S)-2-methyl-[1,3′]bipyrrolidinyl-1′-yl)-2-trifluoromethyl-phenyl]-2,8-diaza-spiro[4.5]decan-1-one] | 6.71 | −7% |
| C[C@H]1CCCN1[C@H]1CCN(c2ccc(N3CCC4(CCN(C(=O)c5ccc6ccccc6c5)CC4)C3=O)c(C(F)(F)F)c2)C1 [Example 62, 2-[4-((2S,3′S)-2-Methyl-[1,3′]bipyrrolidinyl-1′-yl)-2-trifluoromethyl-phenyl]-8-(naphthalene-2-carbonyl)-2,8-diaza-spiro[4.5]decan-1-one] | 8.09 | −19% |
| C[C@H]1CCCN1[C@H]1CCN(c2ccc(N3CCC4(CCN(C(=O)c5ccccc5)CC4)C3=O)c(C(F)(F)F)c2)C1 [Example 63, 8-Benzoyl-2-[4-((2S,3′S)-2-methyl-[1,3′]bipyrrolidinyl-1′-yl)-2-trifluoromethyl-phenyl]-2,8-diaza-spiro[4.5]decan-1-one] | 7.19 | −18% |
| C[C@H]1CCCN1[C@H]1CCN(c2ccc(N3CCC4(CCN(C(=O)c5ccoc5)CC4)C3=O)c(C(F)(F)F)c2)C1 [Example 64, 8-(Furan-3-carbonyl)-2-[4-((2S,3′S)-2-methyl-[1,3′]bipyrrolidinyl-1′-yl)-2-trifluoromethyl-phenyl]-2,8-diaza-spiro[4.5]decan-1-one] | 8.02 | −19% |
| COc1ccc(S(=O)(=O)N2CCC3(CCN(c4ccc(N5CC[C@H](N6CCC[C@@H]6C)C5)cc4C(F)(F)F)C3=O)CC2)cc1 [Example 65, 8-(4-Methoxy-benzenesulfonyl)-2-[4-((2S,3′S)-2-methyl-[1,3′]bipyrrolidinyl-1′-yl)-2-trifluoromethyl-phenyl]-2,8-diaza-spiro[4.5]decan-1-one] | 7.97 | −18% |
| C[C@H]1CCCN1[C@H]1CCN(c2ccc(N3CCC4(CCN(Cc5ccco5)CC4)C3=O)c(C(F)(F)F)c2)C1 [Example 66, 8-Furan-2-ylmethyl-2-[4-((2S,3′S)-2-methyl-[1,3′]bipyrrolidinyl-1′-yl)-2-trifluoromethyl-phenyl]-2,8-diaza-spiro[4.5]decan-1-one] | 8.26 | −19% |
| C[C@H]1CCCN1[C@H]1CCN(c2ccc(N3CCC4(CCN(CC5CC5)CC4)C3=O)c(C(F)(F)F)c2)C1 [Example 67, 8-Cyclopropylmethyl-2-[4-((2S,3′S)-2-methyl-[1,3′]bipyrrolidinyl-1′-yl)-2-trifluoromethyl-phenyl]-2,8-diaza-spiro[4.5]decan-1-one] | 8.85 | −12% |
| C[C@H]1CCCN1[C@H]1CCN(c2ccc(N3CCC4(CCN(CC5CCOCC5)CC4)C3=O)c(C(F)(F)F)c2)C1 [Example 68, 2-[4-((2S,3′S)-2-Methyl-[1,3′]bipyrrolidinyl-1′-yl)-2-trifluoromethyl-phenyl]-8-(tetrahydro-pyran-4-ylmethyl)-2,8-diaza-spiro[4.5]decan-1-one] | 8.38 | −19% |
| C[C@H]1CCCN1[C@H]1CCN(c2ccc(N3CCC4(CCNCC4)C3=O)c(C(F)(F)F)c2)C1.Cl [Example 69, 2-[4-((2S,3′S)-2-Methyl-[1,3′]bipyrrolidinyl-1′-yl)-2-trifluoromethyl-phenyl]-2,8-diaza-spiro[4.5]decan-1-one Hydrochloride] | 10.05 | −28% |
